# ChEMBL document CHEMBL3885881, “DrugMatrix”
# Species on record: Rattus norvegicus
# Assay: DrugMatrix - Regimen: Daily Repeat
# Type: toxicity, organism-based, Sprague-Dawley
# Design: regimen Daily Repeat, gender Male, age 6-8 weeks
# Details: in vivo, po, route oral GAVAGE, vehicle .5 % CMC; for URIC ACID / ALANINE AMINOTRANSFERASE / ALBUMIN / ALKALINE PHOSPHATASE / ASPARTATE AMINOTRANSFERASE / BLOOD UREA NITROGEN / CARBON DIOXIDE / CHLORIDE / CHOLESTEROL / CREATINE PHOSPHOKINASE / CREATININE / GLUCOSE / LACTATE DEHYDROGENASE / LIPASE / PHOSPHORUS / POTASSIUM / SODIUM / TOTAL BILIRUBIN / TOTAL PROTEIN: tissue Plasma; for ABSOLUTE BASOPHIL / ABSOLUTE EOSINOPHIL / ABSOLUTE LYMPHOCYTE / ABSOLUTE MONOCYTE / ABSOLUTE SEGMENTED NEUTROPHIL / BASOPHIL / EOSINOPHIL / ERYTHROCYTE COUNT / HEMATOCRIT / HEMOGLOBIN / LEUKOCYTE COUNT / LYMPHOCYTE / MEAN CORPUSCULAR HEMOGLOBIN / MEAN CORPUSCULAR HEMOGLOBIN CONCENTRATION / MEAN CORPUSCULAR VOLUME / MONOCYTE / NEUTROPHIL / NUCLEATED RED BLOOD CELLS / PLATELET COUNT: tissue Blood
# [1] = 3 mg/kg, 120 h, dose level Low, time 5 day
# [2] = 29 mg/kg, 72 h, dose level High, time 3 day
# [3] = 29 mg/kg, 120 h, dose level High, time 5 day
structure (smiles),measurement,setting,value
O=c1[nH]cc(F)c(=O)[nH]1 [FLUOROURACIL],URIC ACID,"3 mg/kg, 72 h, dose level Low, time 3 day",2.6 mg/dL
same,ABSOLUTE BASOPHIL,[1],0 CELLS/uL
same,ABSOLUTE EOSINOPHIL,[1],0 CELLS/uL
same,ABSOLUTE LYMPHOCYTE,[1],14436 CELLS/uL
same,ABSOLUTE MONOCYTE,[1],30.67 CELLS/uL
same,ABSOLUTE SEGMENTED NEUTROPHIL,[1],1566.67 CELLS/uL
same,BASOPHIL,[1],0%
same,EOSINOPHIL,[1],0%
same,ERYTHROCYTE COUNT,[1],6.23 x10E6/uL
same,HEMATOCRIT,[1],38.2%
same,HEMOGLOBIN,[1],14.4 G/DL
same,LEUKOCYTE COUNT,[1],16.03 x10E3/uL
same,LYMPHOCYTE,[1],88.67%
same,MEAN CORPUSCULAR HEMOGLOBIN,[1],23.13 pg
same,MEAN CORPUSCULAR HEMOGLOBIN CONCENTRATION,[1],37.73 G/DL
same,MEAN CORPUSCULAR VOLUME,[1],61.3 fL
same,MONOCYTE,[1],0.33%
same,NEUTROPHIL,[1],11%
same,NUCLEATED RED BLOOD CELLS,[1],0 /100WBC
same,PLATELET COUNT,[1],1198.67 x10E3/uL
same,ALANINE AMINOTRANSFERASE,[1],42.67 u/L
same,ALBUMIN,[1],4.47 G/DL
same,ALKALINE PHOSPHATASE,[1],303.33 u/L
same,ASPARTATE AMINOTRANSFERASE,[1],79 u/L
same,BLOOD UREA NITROGEN,[1],16 mg/dL
same,CARBON DIOXIDE,[1],27.67 mmol/L
same,CHLORIDE,[1],99.67 MEQ/L
same,CHOLESTEROL,[1],71 mg/dL
same,CREATINE PHOSPHOKINASE,[1],253.67 u/L
same,CREATININE,[1],0.22 mg/dL
same,GLUCOSE,[1],146 mg/dL
same,LACTATE DEHYDROGENASE,[1],229 u/L
same,LIPASE,[1],8.33 u/L
same,PHOSPHORUS,[1],11.5 mg/dL
same,POTASSIUM,[1],6.67 MEQ/L
same,SODIUM,[1],144.17 MEQ/L
same,TOTAL BILIRUBIN,[1],0.2 mg/dL
same,URIC ACID,[1],1.6 mg/dL
same,ABSOLUTE BASOPHIL,[2],0 CELLS/uL
same,ABSOLUTE EOSINOPHIL,[2],63.33 CELLS/uL
same,ABSOLUTE LYMPHOCYTE,[2],11413 CELLS/uL
same,ABSOLUTE MONOCYTE,[2],90.33 CELLS/uL
same,ABSOLUTE SEGMENTED NEUTROPHIL,[2],633.33 CELLS/uL
same,BASOPHIL,[2],0%
same,EOSINOPHIL,[2],0.67%
same,ERYTHROCYTE COUNT,[2],5.41 x10E6/uL
same,HEMATOCRIT,[2],34.9%
same,HEMOGLOBIN,[2],13.17 G/DL
same,LEUKOCYTE COUNT,[2],12.2 x10E3/uL
same,LYMPHOCYTE,[2],93.67%
same,MEAN CORPUSCULAR HEMOGLOBIN,[2],24.33 pg
same,MEAN CORPUSCULAR HEMOGLOBIN CONCENTRATION,[2],37.73 G/DL
same,MEAN CORPUSCULAR VOLUME,[2],64.5 fL
same,MONOCYTE,[2],0.67%
same,NEUTROPHIL,[2],5%
same,NUCLEATED RED BLOOD CELLS,[2],0.33 /100WBC
same,PLATELET COUNT,[2],1461.33 x10E3/uL
same,ALANINE AMINOTRANSFERASE,[2],43.33 u/L
same,ALBUMIN,[2],4.47 G/DL
same,ALKALINE PHOSPHATASE,[2],451.67 u/L
same,ASPARTATE AMINOTRANSFERASE,[2],81.67 u/L
same,BLOOD UREA NITROGEN,[2],15.67 mg/dL
same,CARBON DIOXIDE,[2],26.33 mmol/L
same,CHLORIDE,[2],101.67 MEQ/L
same,CHOLESTEROL,[2],58.67 mg/dL
same,CREATINE PHOSPHOKINASE,[2],429.33 u/L
same,CREATININE,[2],0.19 mg/dL
same,GLUCOSE,[2],206.33 mg/dL
same,LACTATE DEHYDROGENASE,[2],150.67 u/L
same,LIPASE,[2],8 u/L
same,PHOSPHORUS,[2],12.07 mg/dL
same,POTASSIUM,[2],6.46 MEQ/L
same,SODIUM,[2],143.2 MEQ/L
same,TOTAL BILIRUBIN,[2],0.17 mg/dL
same,TOTAL PROTEIN,[2],6.07 G/DL
same,URIC ACID,[2],2.17 mg/dL
same,ABSOLUTE BASOPHIL,[3],0 CELLS/uL
same,ABSOLUTE EOSINOPHIL,[3],58 CELLS/uL
same,ABSOLUTE LYMPHOCYTE,[3],4679.33 CELLS/uL
same,ABSOLUTE MONOCYTE,[3],33 CELLS/uL
same,ABSOLUTE SEGMENTED NEUTROPHIL,[3],263 CELLS/uL
same,BASOPHIL,[3],0%
same,EOSINOPHIL,[3],1%
same,ERYTHROCYTE COUNT,[3],6.26 x10E6/uL
same,HEMATOCRIT,[3],39%
same,HEMOGLOBIN,[3],15.3 G/DL
same,LEUKOCYTE COUNT,[3],5.03 x10E3/uL
same,LYMPHOCYTE,[3],93%
same,MEAN CORPUSCULAR HEMOGLOBIN,[3],24.43 pg
same,MEAN CORPUSCULAR HEMOGLOBIN CONCENTRATION,[3],39.23 G/DL
same,MEAN CORPUSCULAR VOLUME,[3],62.37 fL
same,MONOCYTE,[3],0.67%
same,NEUTROPHIL,[3],5.33%
same,NUCLEATED RED BLOOD CELLS,[3],0 /100WBC
same,PLATELET COUNT,[3],964.67 x10E3/uL
same,ALANINE AMINOTRANSFERASE,[3],23.67 u/L
same,ALBUMIN,[3],4.03 G/DL
same,ALKALINE PHOSPHATASE,[3],148.33 u/L
same,ASPARTATE AMINOTRANSFERASE,[3],75.67 u/L
same,BLOOD UREA NITROGEN,[3],18.67 mg/dL
same,CARBON DIOXIDE,[3],25 mmol/L
same,CHLORIDE,[3],102.67 MEQ/L
same,CHOLESTEROL,[3],89.67 mg/dL
same,CREATINE PHOSPHOKINASE,[3],751.33 u/L
same,CREATININE,[3],0.12 mg/dL
same,GLUCOSE,[3],106.67 mg/dL
same,LACTATE DEHYDROGENASE,[3],166.33 u/L
same,LIPASE,[3],7.33 u/L
same,PHOSPHORUS,[3],7.93 mg/dL
same,POTASSIUM,[3],5.82 MEQ/L
same,SODIUM,[3],150.33 MEQ/L
same,TOTAL BILIRUBIN,[3],0.17 mg/dL
same,TOTAL PROTEIN,[3],5.57 G/DL
same,URIC ACID,[3],0.93 mg/dL
